Assay results published in US9932637B2, “Genetic polymorphisms associated with cardiovascular disorders and drug response, methods of detection and uses thereof” (CELERA CORPORATION, priority 2003, dated 2018).

Tested on: patients with prior myocardial infarction (CARE study)
Experiment: CARE: association of SNPs with pravastatin treatment in cardiovascular events prevention (logistic regression, odds ratio pravastatin vs placebo by genotype; Table 8)
Type: in vivo, human
Conditions: for Prava vs. Placebo Odds Ratio, 1 Rare Alleles / Prava vs. Placebo Odds Ratio, 2 Rare Alleles / Non-fatal MI (def & prob), n/total (%) / Fatal/Non-fatal MI (def & prob), n/total (%) / Fatal CHD/Definite Non-fatal MI, n/total (%) / Total Coronary Heart Disease Events, n/total (%) / Fatal/Non-fatal Atherosclerotic CV Disease, n/total (%) / Hosp. for Cardiovascular Disease, n/total (%) / Total Cardiovascular Disease Events, n/total (%) / Prava vs. Placebo Odds Ratio, 0 Rare Alleles: All Patients; for Non-fatal MI (def & prob), n/total (%) / Fatal/Non-fatal MI (def & prob), n/total (%) / Fatal CHD/Definite Non-fatal MI, n/total (%) / Total Coronary Heart Disease Events, n/total (%) / Fatal/Non-fatal Atherosclerotic CV Disease, n/total (%) / Hosp. for Cardiovascular Disease, n/total (%) / Total Cardiovascular Disease Events, n/total (%): Prava
Description: In order to identify genetic markers associated with acute coronary events (e.g. MI, stroke, unstable angina, congestive heart failure, etc.) or response to statin treatment for the prevention of coronary events, samples from the Cholesterol and Recurrent Events (CARE) study (a randomized multicentral double-blinded trial on secondary prevention of acute coronary events with pravastatin) (Sacks et al., 1991, Am. J. Cardiol. 68: 1436-1446) were genotyped. A well-documented myocardial infarction (MI) was one of the enrollment criteria for entry into the CARE study. Patients were enrolled in the CARE trial from 80 participating study centers. […] Patients were randomized to receive either 40 mg of pravastatin once daily or a matching placebo. The primary endpoint of the trial was death from coronary heart disease and the median duration of follow-up was 5.0 years (range, 4.0 to 6.2 years). […] Secondary endpoints of other related cardiovascular or metabolic disease events, and changes in clinical variables were also recorded in pravastatin-treated and placebo groups. All individuals included in the study had signed a written informed consent form and the study protocol was approved by the respective Institutional Review Boards (IRBs).
For genotyping SNPs in CARE patient samples, DNA was extracted from blood samples using conventional DNA extraction methods such as the QIA-amp kit from Qiagen. Genotypes were obtained on an ABI PRISM® 7900HT Sequence Detection PCR system (Applied Biosystems, Foster City, Calif.) by kinetic allele-specific PCR, similar to the method described by Germer et al. (Germer S., Holland M. J., Higuchi R. 2000, Genome Res. 10: 258-266).
Statistical analysis for association of SNPs with pravastatin treatment in cardiovascular events prevention (Table 8) was carried out using an overall logistic regression model that included an intercept, a parameter for the effect of a genotype containing two rare alleles versus a genotype containing no rare alleles, a parameter for the effect of a genotype containing one rare allele versus a genotype containing no rare alleles, a parameter for the effect of use of pravastatin versus the use of placebo, and parameters for the interaction effects between SNP genotypes and pravastatin use. The test of the overall model is a chi-square test with two degrees of freedom for analyses containing all three genotypes, and one degree of freedom for analyses containing two genotypes.
Effect sizes were estimated through odds ratios (pravastatin group versus placebo) for carriers of each genotype (groups of 0, 1, and 2 minor allele carriers). The effect was considered to be significant if p-value for testing whether any of the interactions between SNP genotypes and pravastatin use were <0.05. […] Odds ratios less than one indicate that the specific SNP allele has a protective effect and odds ratios greater than one indicate that the specific SNP allele has an adverse effect.

[1] = IL1A hCV9546471, Total Mortality
[2] = IL1RN hCV8737990, 2 Rare Alleles, n/total 20/121
[3] = IL1RN hCV8737990, Fatal CHD/Definite Non-fatal MI
[4] = IL1RN hCV8737990, Fatal/Non-fatal Atherosclerotic CV Disease
[5] = IL1RN hCV8737990, Fatal/Non-fatal MI (def & prob)
[6] = IL1RN hCV8737990, Hosp. for Cardiovascular Disease
[7] = IL1RN hCV8737990, Non-fatal MI (def & prob)
[8] = IL1RN hCV8737990, Total Cardiovascular Disease Events
[9] = IL1RN hCV8737990, Total Coronary Heart Disease Events
[10] = IL6ST hCV16170435, 2 Rare Alleles, n/total 19/37
[11] = IL6ST hCV16170435, Hosp. for Cardiovascular Disease
[12] = IL6ST hCV16170435, Total Cardiovascular Disease Events
[13] = IL9 hCV3275199, All Patients, 0 Rare Alleles, Prava arm

## CC[C@H](C)C(=O)O[C@H]1C[C@H](O)C=C2C=C[C@H](C)[C@H](CC[C@@H](O)C[C@@H](O)CC(=O)O)[C@H]21 [pravastatin]
[1]
  Prava vs. Placebo Odds Ratio, 1 Rare Alleles: 0.60
  Prava vs. Placebo Odds Ratio, 2 Rare Alleles: 0.29
IL1RN hCV8737990, 0 Rare Alleles, n/total 68/809
  Non-fatal MI (def & prob), n/total (%): (8.4%)
IL1RN hCV8737990, 0 Rare Alleles, n/total 76/809
  Fatal/Non-fatal MI (def & prob), n/total (%): (9.4%)
IL1RN hCV8737990, 0 Rare Alleles, n/total 80/809
  Fatal CHD/Definite Non-fatal MI, n/total (%): (9.9%)
IL1RN hCV8737990, 0 Rare Alleles, n/total 228/809
  Total Coronary Heart Disease Events, n/total (%): (28.2%)
IL1RN hCV8737990, 0 Rare Alleles, n/total 260/809
  Fatal/Non-fatal Atherosclerotic CV Disease, n/total (%): (32.1%)
IL1RN hCV8737990, 0 Rare Alleles, n/total 315/809
  Hosp. for Cardiovascular Disease, n/total (%): (38.9%)
IL1RN hCV8737990, 0 Rare Alleles, n/total 325/809
  Total Cardiovascular Disease Events, n/total (%): (40.2%)
IL1RN hCV8737990, 1 Rare Allele, n/total 44/585
  Fatal CHD/Definite Non-fatal MI, n/total (%): (7.5%)
IL1RN hCV8737990, 1 Rare Allele, n/total 45/585
  Non-fatal MI (def & prob), n/total (%): (7.7%)
IL1RN hCV8737990, 1 Rare Allele, n/total 49/585
  Fatal/Non-fatal MI (def & prob), n/total (%): (8.4%)
IL1RN hCV8737990, 1 Rare Allele, n/total 167/585
  Total Coronary Heart Disease Events, n/total (%): (28.5%)
IL1RN hCV8737990, 1 Rare Allele, n/total 193/585
  Fatal/Non-fatal Atherosclerotic CV Disease, n/total (%): (33.0%)
IL1RN hCV8737990, 1 Rare Allele, n/total 232/585
  Hosp. for Cardiovascular Disease, n/total (%): (39.7%)
IL1RN hCV8737990, 1 Rare Allele, n/total 239/585
  Total Cardiovascular Disease Events, n/total (%): (40.9%)
IL1RN hCV8737990, 2 Rare Alleles, n/total 15/121
  Fatal CHD/Definite Non-fatal MI, n/total (%): (12.4%)
[2]
  Fatal/Non-fatal MI (def & prob), n/total (%): (16.5%)
  Non-fatal MI (def & prob), n/total (%): (16.5%)
IL1RN hCV8737990, 2 Rare Alleles, n/total 45/121
  Total Coronary Heart Disease Events, n/total (%): (37.2%)
IL1RN hCV8737990, 2 Rare Alleles, n/total 51/121
  Fatal/Non-fatal Atherosclerotic CV Disease, n/total (%): (42.1%)
IL1RN hCV8737990, 2 Rare Alleles, n/total 60/121
  Hosp. for Cardiovascular Disease, n/total (%): (49.6%)
IL1RN hCV8737990, 2 Rare Alleles, n/total 61/121
  Total Cardiovascular Disease Events, n/total (%): (50.4%)
[3]
  Prava vs. Placebo Odds Ratio, 0 Rare Alleles: 0.75
  Prava vs. Placebo Odds Ratio, 1 Rare Alleles: 0.52
  Prava vs. Placebo Odds Ratio, 2 Rare Alleles: 1.89
[4]
  Prava vs. Placebo Odds Ratio, 0 Rare Alleles: 0.75
  Prava vs. Placebo Odds Ratio, 1 Rare Alleles: 0.66
  Prava vs. Placebo Odds Ratio, 2 Rare Alleles: 1.67
[5]
  Prava vs. Placebo Odds Ratio, 0 Rare Alleles: 0.66
  Prava vs. Placebo Odds Ratio, 1 Rare Alleles: 0.51
  Prava vs. Placebo Odds Ratio, 2 Rare Alleles: 1.70
[6]
  Prava vs. Placebo Odds Ratio, 0 Rare Alleles: 0.77
  Prava vs. Placebo Odds Ratio, 1 Rare Alleles: 0.64
  Prava vs. Placebo Odds Ratio, 2 Rare Alleles: 1.37
[7]
  Prava vs. Placebo Odds Ratio, 0 Rare Alleles: 0.68
  Prava vs. Placebo Odds Ratio, 1 Rare Alleles: 0.52
  Prava vs. Placebo Odds Ratio, 2 Rare Alleles: 1.70
[8]
  Prava vs. Placebo Odds Ratio, 0 Rare Alleles: 0.75
  Prava vs. Placebo Odds Ratio, 1 Rare Alleles: 0.65
  Prava vs. Placebo Odds Ratio, 2 Rare Alleles: 1.37
[9]
  Prava vs. Placebo Odds Ratio, 0 Rare Alleles: 0.74
  Prava vs. Placebo Odds Ratio, 1 Rare Alleles: 0.67
  Prava vs. Placebo Odds Ratio, 2 Rare Alleles: 1.84
IL6ST hCV16170435, 0 Rare Alleles, n/total 450/1131
  Hosp. for Cardiovascular Disease, n/total (%): (39.8%)
IL6ST hCV16170435, 0 Rare Alleles, n/total 465/1131
  Total Cardiovascular Disease Events, n/total (%): (41.1%)
IL6ST hCV16170435, 1 Rare Allele, n/total 139/340
  Hosp. for Cardiovascular Disease, n/total (%): (40.9%)
IL6ST hCV16170435, 1 Rare Allele, n/total 142/340
  Total Cardiovascular Disease Events, n/total (%): (41.8%)
[10]
  Hosp. for Cardiovascular Disease, n/total (%): (51.4%)
  Total Cardiovascular Disease Events, n/total (%): (51.4%)
[11]
  Prava vs. Placebo Odds Ratio, 0 Rare Alleles: 0.75
  Prava vs. Placebo Odds Ratio, 1 Rare Alleles: 0.72
  Prava vs. Placebo Odds Ratio, 2 Rare Alleles: 2.49
[12]
  Prava vs. Placebo Odds Ratio, 0 Rare Alleles: 0.75
  Prava vs. Placebo Odds Ratio, 1 Rare Alleles: 0.69
  Prava vs. Placebo Odds Ratio, 2 Rare Alleles: 2.49
[13]
  Fatal/Nonfatal MI (def & prob), n/total (%): (10.8%)
  MI (Fatal/Nonfatal), n/total (%): (11.1%)
